According to patent US20250375474A1, “COMPOSITIONS FOR THE PREVENTION AND TREATMENT OF MOISTURE-ASSOCIATED SKIN DAMAGE” (SCOTIADERM INC., priority 2022, published 2025):

test system: incontinence-associated dermatitis (IAD) lesions induced with 5% pancreatin; test: Incontinence-associated dermatitis (IAD) rabbit model, treatment of induced ear lesions; type: in vivo; details: rabbit ears; 1% clotrimazole, 1% hydrocortisone, 15% zinc oxide applied separately vs combination
Description: A rabbit model of IAD was also investigated. A combination cream (DGBC) was used to assess healing of an animal model of IAD compared with three active components of the cream. Twenty-six IAD lesions were induced and each lesion was treated with the individual components and the combination cream.
Rabbits were purchased from Charles River to be used for these experiments. […] Additionally, the animals' ears were used to maximize the sample size, effectively halving the number of animals required for the project. Twenty-two female rabbits were purchased: 2 for the pilot phase and 18 for phase 2 of the project. The study was conducted, and animals were housed at the AVC Research Facility as per CCAC guidelines. The experimental treatment utilized a therapeutic cream composed of 1.0% hydrocortisone, 1.0% clotrimazole and 15.0% zinc oxide (DGBC).
Induction of IAD. 1.Sedation of rabbit: Midazolam 0.5 mg/kg intramuscularly (IM) plus buprenorphine 0.03 mg/kg IM. Animals were assessed for sedation prior to gauze application. Animals requiring further sedation were sedated with ketamine 5 mg/kg IM. 2.Cleaning of the ear: The skin of both inner ears of each animal were cleaned with a 2×2 gauze saturated with 3 ml isopropyl alcohol and allowed to air dry for 5 minutes before applying the saturated gauze. The animal were held for a period of 5 min to ensure the ear was dry prior to application of IAD induction. 3.Application of gauze with 5% pancreatin to induce IAD: both ears of the animals were irritated as follows: Sterile 2×2 gauze was used as a carrier for the irritant. The gauze was saturated with 3 ml of pancreatin. 4.Wrapping of the ear: Both ears of each animal had gauze with pancreatin applied to the medial surface. […] 5.Monitoring period of 24 h: After 24 hours the bandage and occlusive dressing was removed and the ears assessed for sufficient irritation. […] Rabbits assessed as painful 1 hour after administration of gabapentin were treated with buprenorphine 0.03 mg/kg SC and be reassessed for pain in 1 hour. […]

| Structure (SMILES) | effect in treating IAD compared with DGBC therapeutic cream |
| --- | --- |
| Clc1ccccc1C(c1ccccc1)(c1ccccc1)n1ccnc1 [clotrimazole, Clotrimazole] | do not produce the same effect |
| C[C@]12CCC(=O)C=C1CC[C@@H]1[C@@H]2[C@@H](O)C[C@@]2(C)[C@H]1CC[C@]2(O)C(=O)CO [hydrocortisone, 11β, 17α,21-Trihydroxypregn-4-ene-3,20-dione] | do not produce the same effect |
| [O]=[Zn] [zinc oxide, Zinc oxide] | do not produce the same effect |
